Assay results: patent US20240018123A1, “COMPOUND FOR INHIBITING OR DISINTEGRATING ANDROGEN RECEPTOR, AND PHARMACEUTICAL USE THEREOF” (KOREA RESEARCH INSTITUTE OF CHEMICAL TECHNOLOGY, priority 2020, published 2024)
Like-named read-outs stand apart in the source and are kept apart here.

Key:
[1] = molecular target: T1, Androgen receptor (AR) (Homo sapiens, UniProt P10275, T878A); experiment: Assessment of AR proteolytic activity (Western blotting of LNCap cell lysates); format: cell-based; settings: 24 hours of treatment, Western blotting quantified with Image J
T1 construct: 5.5×10^5 LNCap cells were injected into each well of a 6-well plate; endogenous in cells; host or cells: LNCaP
T1 sequence (P10275 1-920 T878A): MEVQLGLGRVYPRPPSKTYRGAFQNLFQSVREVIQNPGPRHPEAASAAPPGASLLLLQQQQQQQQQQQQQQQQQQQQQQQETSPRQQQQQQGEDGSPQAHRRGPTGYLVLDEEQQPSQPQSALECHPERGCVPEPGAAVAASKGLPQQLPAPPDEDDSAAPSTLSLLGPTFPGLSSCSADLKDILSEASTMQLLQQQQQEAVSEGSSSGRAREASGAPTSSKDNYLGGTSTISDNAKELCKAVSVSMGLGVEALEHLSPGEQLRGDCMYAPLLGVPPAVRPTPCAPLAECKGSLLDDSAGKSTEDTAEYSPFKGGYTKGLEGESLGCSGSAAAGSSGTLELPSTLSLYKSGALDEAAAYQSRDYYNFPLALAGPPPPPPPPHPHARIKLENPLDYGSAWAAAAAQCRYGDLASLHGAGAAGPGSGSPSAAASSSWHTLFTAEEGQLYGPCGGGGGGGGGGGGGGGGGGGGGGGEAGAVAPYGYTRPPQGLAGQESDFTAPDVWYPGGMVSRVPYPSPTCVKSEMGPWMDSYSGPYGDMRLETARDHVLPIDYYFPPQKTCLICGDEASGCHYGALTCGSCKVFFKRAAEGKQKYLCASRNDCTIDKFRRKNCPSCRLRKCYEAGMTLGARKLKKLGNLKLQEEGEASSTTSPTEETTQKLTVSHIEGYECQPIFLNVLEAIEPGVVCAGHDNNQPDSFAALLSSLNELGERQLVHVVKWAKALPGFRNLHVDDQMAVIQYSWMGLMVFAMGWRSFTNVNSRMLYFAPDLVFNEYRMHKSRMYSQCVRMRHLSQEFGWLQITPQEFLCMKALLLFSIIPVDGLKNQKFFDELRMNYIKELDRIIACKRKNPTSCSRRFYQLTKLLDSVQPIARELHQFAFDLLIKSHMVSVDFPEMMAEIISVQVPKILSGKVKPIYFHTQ
In short: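 AR degradation read by Western blot densitometry on RIPA lysates (pH 7.5, protease inhibitor cocktail). Lysates came from LNCap cells, 5.5×10^5 per well, exposed to compound for 24 hours.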

[2] = test system: VCaP cells; experiment: Cytotoxicity assessment (Cell-titer-glo cell viability), VCaP
[3] = read-out: VCaP (CC50), VCaP cells, 6 days of treatment, Cell-titer-glo, vs DMSO

SMILES	Degradation (1 μM treated in LNCaP, % AR remaining) [1]	CC50 [2, 3]	remaining activity at 1 µM ([1]; read-out: Degradation (1 μM treated in LNCaP, % AR remaining))	CC50 ([2]; Homo sapiens, VCaP, 144 h, read-out: VCaP (CC50, μM))
CC1(C)C(NC(=O)c2ccc(N3CCN(CC4(O)CCN(C(=O)C5CCN(c6ccc7nnn(C8CCC(=O)NC8=O)c(=O)c7c6)CC5)CC4)CC3)cc2)C(C)(C)C1Oc1ccc(C#N)c(Cl)c1 (stereo not drawn) [Example 55, N-((1r,3r)-3-(3-chloro-4-cyanophenoxy)-2,2,4,4-tetramethylcyclobutyl)-4-(4-((1-(1-(3-(2,6-dioxopiperidin-3-yl)-4-oxo-3,4-dihydrobenzo[d][1,2,3]triazin-6-yl)piperidine-4-carbonyl)-4-hydroxypiperidin-4-yl)methyl)piperazin-1-yl)benzamide]	8.6%	0.0365 µM	–	–
CC1(C)[C@H](NC(=O)c2ccc(N3CCN(CC4(F)CCN(c5ccc6nnn(C7CCC(=O)NC7=O)c(=O)c6c5)CC4)CC3)cc2)C(C)(C)[C@H]1Oc1ccc(C#N)c(Cl)c1 (stereo partly drawn) [Example 61, N-((1r,3r)-3-(3-chloro-4-cyanophenoxy)-2,2,4,4-tetramethylcyclobutyl)-4-(4-((1-(3-(2,6-dioxopiperidin-3-yl)-4-oxo-3,4-dihydrobenzo[d][1,2,3]triazin-6-yl)-4-fluoropiperidin-4-yl)methyl)piperazin-1-yl)benzamide]	–	–	25%	0.29 µM
CC1(C)C(NC(=O)c2ccc(N3CCN(CC4(F)CCN(C(=O)C5CCN(c6ccc7nnn(C8CCC(=O)NC8=O)c(=O)c7c6)CC5)CC4)CC3)cc2)C(C)(C)C1Oc1ccc(C#N)c(Cl)c1 (stereo not drawn) [Example 62, N-((1r,3r)-3-(3-chloro-4-cyanophenoxy)-2,2,4,4-tetramethylcyclobutyl)-4-(4-((1-(1-(3-(2,6-dioxopiperidin-3-yl)-4-oxo-3,4-dihydrobenzo[d][1,2,3]triazin-6-yl)piperidine-4-carbonyl)-4-fluoropiperidin-4-yl)methyl)piperazin-1-yl)benzamide]	15%	0.0345 µM	–	–
CC1(C)C(NC(=O)c2ccc(N3CCN(C=C4CCN(C(=O)C5CCN(c6ccc7nnn(C8CCC(=O)NC8=O)c(=O)c7c6)CC5)CC4)CC3)cc2)C(C)(C)C1Oc1ccc(C#N)c(Cl)c1 (stereo not drawn) [Example 65, N-((1r,3r)-3-(3-chloro-4-cyanophenoxy)-2,2,4,4-tetramethylcyclobutyl)-4-(4-((1-(1-(3-(2,6-dioxopiperidin-3-yl)-4-oxo-3,4-dihydrobenzo[d][1,2,3]triazin-6-yl)piperidine-4-carbonyl)piperidin-4-ylidene)methyl)piperazin-1-yl)benzamide]	25%	0.044 µM	–	–
CC1(C)C(NC(=O)c2ccc(N3CCN(CC4CCN(CCNC(=O)C5CCN(c6ccc7nnn(C8CCC(=O)NC8=O)c(=O)c7c6)CC5)CC4)CC3)cc2)C(C)(C)C1Oc1ccc(C#N)c(Cl)c1 (stereo not drawn) [Example 68, N-(2-(4-((4-(4-(((1r,3r)-3-(3-chloro-4-cyanophenoxy)-2,2,4,4-tetramethylcyclobutyl)carbamoyl)phenyl)piperazin-1-yl)methyl)piperidin-1-yl)ethyl)-1-(3-(2,6-dioxopiperidin-3-yl)-4-oxo-3,4-dihydrobenzo[d][1,2,3]triazin-6-yl)piperidine-4-carboxamide]	26%	0.162 µM	–	–
CC1(C)C(NC(=O)c2ccc(N3CC4CC3CN4C3CC4(CCN(C(=O)C5CCN(c6ccc7nnn(C8CCC(=O)NC8=O)c(=O)c7c6)CC5)CC4)C3)cc2)C(C)(C)C1Oc1ccc(C#N)c(Cl)c1 (stereo not drawn) [Example 71, N-((1r,3r)-3-(3-chloro-4-cyanophenoxy)-2,2,4,4-tetramethylcyclobutyl)-4-(5-(7-(1-(3-(2,6-dioxopiperidin-3-yl)-4-oxo-3,4-dihydrobenzo[d][1,2,3]triazin-6-yl)piperidine-4-carbonyl)-7-azaspiro[3.5]nonan-2-yl)-2,5-diazabicyclo[2.2.1]heptan-2-yl)benzamide]	37%	0.0705 µM	–	–
CC1(C)[C@H](NC(=O)c2ccc(C3CCN(CCOC4CCN(C(=O)C5CCN(c6ccc7nnn(C8CCC(=O)NC8=O)c(=O)c7c6)CC5)CC4)CC3)cc2)C(C)(C)[C@H]1Oc1ccc(C#N)c(Cl)c1 (stereo partly drawn) [Example 74, N-((1r,3r)-3-(3-chloro-4-cyanophenoxy)-2,2,4,4-tetramethylcyclobutyl)-4-(1-(2-((1-(1-(3-(2,6-dioxopiperidin-3-yl)-4-oxo-3,4-dihydrobenzo[d][1,2,3]triazin-6-yl)piperidine-4-carbonyl)piperidin-4-yl)oxy)ethyl)piperidin-4-yl)benzamide]	20%	0.0732 µM	–	–
CC1(C)C(NC(=O)c2ccc(N3CCN(CC4CCN(c5ccc6nnn(C7CCC(=O)NC7=O)c(=O)c6c5)CC4)CC3)nc2)C(C)(C)C1Oc1ccc(C#N)c(Cl)c1 (stereo not drawn) [Example 78, N-((1r,3r)-3-(3-chloro-4-cyanophenoxy)-2,2,4,4-tetramethylcyclobutyl)-6-(4-((1-(3-(2,6-dioxopiperidin-3-yl)-4-oxo-3,4-dihydrobenzo[d][1,2,3]triazin-6-yl)piperidin-4-yl)methyl)piperazin-1-yl)nicotinamide]	24%	0.00768 µM	–	–
CC1(C)C(NC(=O)c2cnc(N3CCN(CC4CCN(c5ccc6nnn(C7CCC(=O)NC7=O)c(=O)c6c5)CC4)CC3)cn2)C(C)(C)C1Oc1ccc(C#N)c(Cl)c1 (stereo not drawn) [Example 79, N-((1r,3r)-3-(3-chloro-4-cyanophenoxy)-2,2,4,4-tetramethylcyclobutyl)-5-(4-((1-(3-(2,6-dioxopiperidin-3-yl)-4-oxo-3,4-dihydrobenzo[d][1,2,3]triazin-6-yl)piperidin-4-yl)methyl)piperazin-1-yl)pyrazine-2-carboxamide]	45%	0.2 µM	–	–
CC1(C)C(NC(=O)c2ccc(N3CCN(CC4CCN(C(=O)C5CN(c6ccc7nnn(C8CCC(=O)NC8=O)c(=O)c7c6)C5)CC4)CC3)nc2)C(C)(C)C1Oc1ccc(C#N)c(Cl)c1 (stereo not drawn) [Example 80, N-((1r,3r)-3-(3-chloro-4-cyanophenoxy)-2,2,4,4-tetramethylcyclobutyl)-6-(4-((1-(1-(3-(2,6-dioxopiperidin-3-yl)-4-oxo-3,4-dihydrobenzo[d][1,2,3]triazin-6-yl)azetidine-3-carbonyl)piperidin-4-yl)methyl)piperazin-1-yl)nicotinamide]	56%	0.01 µM	–	–
CC1(C)C(NC(=O)c2ccc(N3CCN(CC4CCN(C(=O)C5CCN(c6ccc7nnn(C8CCC(=O)NC8=O)c(=O)c7c6)CC5)CC4)CC3)nc2)C(C)(C)C1Oc1ccc(C#N)c(Cl)c1 (stereo not drawn) [Example 81, N-((1r,3r)-3-(3-chloro-4-cyanophenoxy)-2,2,4,4-tetramethylcyclobutyl)-6-(4-((1-(1-(3-(2,6-dioxopiperidin-3-yl)-4-oxo-3,4-dihydrobenzo[d][1,2,3]triazin-6-yl)piperidine-4-carbonyl)piperidin-4-yl)methyl)piperazin-1-yl)nicotinamide]	18%	0.0238 µM	–	–
CC1(C)C(NC(=O)c2ccc(-c3cnn(C4CCN(CC5CCN(C(=O)C6CCN(c7ccc8nnn(C9CCC(=O)NC9=O)c(=O)c8c7)CC6)CC5)CC4)c3)cc2)C(C)(C)C1Oc1ccc(C#N)c(Cl)c1 (stereo not drawn) [Example 82, N-((1r,3r)-3-(3-chloro-4-cyanophenoxy)-2,2,4,4-tetramethylcyclobutyl)-4-(1-(1-((1-(1-(3-(2,6-dioxopiperidin-3-yl)-4-oxo-3,4-dihydrobenzo[d][1,2,3]triazin-6-yl)piperidine-4-carbonyl)piperidin-4-yl)methyl)piperidin-4-yl)-1H-pyrazol-4-yl)benzamide]	27%	0.0144 µM	–	–
